The numbers were not newly measured in patent publication US20070293552A1, “ANTIHYPERTENSIVE THERAPY METHOD” (priority 2006, published 2007), which cites them from elsewhere.

The series addresses T1, ETA (Homo sapiens, UniProt P25101).
T1 sequence (P25101 21-427): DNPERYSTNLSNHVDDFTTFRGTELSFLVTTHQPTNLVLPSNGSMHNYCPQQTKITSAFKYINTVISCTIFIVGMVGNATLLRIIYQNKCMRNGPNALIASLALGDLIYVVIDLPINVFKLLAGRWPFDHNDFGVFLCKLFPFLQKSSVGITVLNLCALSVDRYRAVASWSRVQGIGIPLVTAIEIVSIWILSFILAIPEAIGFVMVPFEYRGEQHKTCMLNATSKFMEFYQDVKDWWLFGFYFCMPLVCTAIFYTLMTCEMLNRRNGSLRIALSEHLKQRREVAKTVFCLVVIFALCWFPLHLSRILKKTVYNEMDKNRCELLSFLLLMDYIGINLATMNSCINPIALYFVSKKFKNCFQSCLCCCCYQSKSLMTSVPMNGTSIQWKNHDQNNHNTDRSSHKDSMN
The conditions noted are these: selectivity for ETA over ETB; reported by Wu et al. (2004) J. Med. Chem. 47, 1969-1986.

Consider `CC(=O)c1cc(C)cc(C)c1NC(=O)c1sccc1S(=O)(=O)Nc1onc(C)c1C` [TBC3711, N-(2-acetyl-4,6-dimethylphenyl)-3-(3,4-dimethylisoxazol-5-ylsulfamoyl)-thiophene-2-carboxamide], for which the ETA/ETB selectivity factor is 441×10^3.
